# Reference: publication PMC8670630 (Bioorganic & medicinal chemistry letters, 2021)
# Key:
# [1] = molecular target: human sulfide:quinone oxidoreductase (SQOR) (Homo sapiens, UniProt Q9Y6N5); experiment: SQOR inhibition; format: biochemical
# [2] = tested on: Caco-2; experiment: Caco-2 permeability; format: in vitro ADME
# [3] = Mouse plasma protein binding; format: in vitro ADME
# [4] = tested on: CoQ-binding site in SQOR; conditions: in vitro tests; ref [21],[22]; cited from earlier work
# [5] = tested on: mammalian cells; conditions: in vitro tests; ref [21],[22]; cited from earlier work
# [6] = tested on: murine model of heart failure; conditions: ref [21],[22]; cited from earlier work
# human sulfide:quinone oxidoreductase (SQOR), sequence (Q9Y6N5 whole entry): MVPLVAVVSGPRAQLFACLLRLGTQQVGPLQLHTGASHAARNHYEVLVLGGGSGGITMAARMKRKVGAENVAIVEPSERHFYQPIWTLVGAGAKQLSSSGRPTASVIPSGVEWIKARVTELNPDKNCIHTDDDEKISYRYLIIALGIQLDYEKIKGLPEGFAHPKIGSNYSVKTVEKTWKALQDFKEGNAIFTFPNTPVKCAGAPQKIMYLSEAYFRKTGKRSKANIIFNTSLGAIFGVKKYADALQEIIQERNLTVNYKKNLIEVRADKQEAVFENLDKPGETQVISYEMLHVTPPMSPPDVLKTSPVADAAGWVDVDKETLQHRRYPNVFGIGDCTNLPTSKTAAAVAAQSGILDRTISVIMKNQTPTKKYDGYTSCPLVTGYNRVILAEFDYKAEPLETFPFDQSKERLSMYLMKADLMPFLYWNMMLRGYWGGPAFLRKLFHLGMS
compound,measurement,setting,value
COc1nc(-c2ccccc2)cc(-c2ccc(Cl)cc2Cl)c1C#N [Compound 7],activity in IC50 assay (in words),[1],inactivity
COc1nc(-c2ncccc2C)cc(-c2ccc(F)cc2)c1C#N [Compound 15],Caco-2 permeability A→B,[2]; A→B,0.455 1 × 10^−6 cm/s
same,Caco-2 permeability B→A,[2]; B→A,0.769 1 × 10^−6 cm/s
same,Mouse Plasma Protein Binding (% bound),[3],99.64 % bound
COc1nc(-c2ncccc2C)cc(-c2ccc(N)cc2)c1C#N [Compound 19],specificity for the CoQ-binding site in SQOR,[4],high degree of specificity
same,toxicity in mammalian cells,[5],little or no toxicity
same,Mouse Plasma Protein Binding (% bound),[3],97.8 % bound
same,effect on cardiac function and progression to heart failure,[6],preserves cardiac function and prevents the progression to heart failure
CCOc1nc(-c2ccccc2)nc(-c2ccccc2)c1C#N [Compound 24],fold less active than the equivalent pyridine 21,"[1]; SQOR inhibition, 24 versus 21",2 fold
